Measured values reported in EP0807629B1, “Sulfonamido substituted chromane derivatives, method for their preparation, their use as medicaments or diagnostic agents aswell as medicaments containing them” (Aventis Pharma Deutschland GmbH, priority 1996, dated 1997).
Like-named read-outs stand apart in the source and are kept apart here.

System: gastrischen Drüsenschläuche
Test: 14C-aminopyrine accumulation in isolated gastric glands (inhibition of gastric acid secretion)
Assay type: cell-based, Kaninchen
Conditions: read-out: IC50 Inhibition der stimulierten AP-Akkumulation
Source text: Methode: Die Hochdruckperfusion des […] wurde nach der Beschreibung von Berglindh und Obrink (1) und unter Anwendung einiger Modifikationen, wie sie an anderer Stelle berichtet werden (2), ausgeführt. Kaninchen (männlich und weiblich, 2 - 3 kg) wurden schmerzfrei unter Narkose durch zervikale Dislokation getötet und der Magen wie in der Literatur berichtet perfundiert (1). Die Mukosa des Magenfundus wurde mit einem Schaber entfernt und mittels einer Schere zerkleinert. Die so erhaltenen Mukosafragmente wurden mit_1 mg/ml Kollagenase in einem Medium bestehend aus 100 mM NaCl, 5 mM KCI, 0,5 mM NaH2PO4, 1 mM Na2HPO4, 1 mM CaCl2, 1,5 mM MgCl2, 20 mM NaHCO3, 20 mM HEPES, 2mg/ml Glukose und 1 mg/ml Kaninchenalbumin für 30 - 45 min bei 37°C behandelt, wobei der pH des Gemisches mit Tris-Puffer auf 7,4 eingestellt war. Die Drüsenschläuche (gastric glands) wurden durch ein Nylonnetz zur Entfernung grober Fragmente filtriert und 3 mal mit Inkubationsmedium gespült. Anschließend wurden die Drüsenschläuche im Medium in einer Konzentration von 2 - 4 mg Trockengewicht/ml suspendiert.
Als Maß für die Fähigkeit der gastrischen Drüsenschläuche zur Säurebildung wurde die Akkumulation von ^14C-Aminopyrin (^14C-AP) bestimmt (3). Hierzu wurden Proben von 1 ml Drüsenschlauchsuspension mit ^14C-AP (1 µM, 200 000 cpm) und der zu testenden Verbindung inkubiert und für 20 - 30 min bei 37°C in einem schüttelnden Wasserbad behandelt. Anschließend wurden Histamin (100 µM), dbcAMP (0.3 oder 1 mM) oder Carbachol (100 µM) zugegeben, gefolgt von einer zweiten Inkubationsdauer von 30 - 45 min.. Die Inkubation wurde anschließend beendet durch Zentrifugiren der Proben für eine halbe Minute. Die überstehende Flüssigkeit wurde entfernt und die erhaltenen pellets in 1 ml NaOH gelöst. Proben der Pellets und des Flüssigkeitsüberstands wurden im Szintillationszähler gemessen. Das AP-Verhältnis der intraglandulären und extraglandulären Radioaktivität wurde nach Sack und Spenney (4) berechnet. Alle Bestimmungen wurden dreifach durchgeführt.

`CCS(=O)(=O)N(C)[C@@H]1c2cc(C#N)ccc2OC(C)(C)[C@H]1O` (relative stereo) [293B, trans-6-Cyano-4-(N-ethylsulfonyl-N-methylamino)-3-hydroxy-2,2-dimethyl-chroman] was tested, and the IC50 (after Carbachol stimulation (100 µM)) was 5 µM, the IC50 (after Histamin stimulation (100 µM)) was 20 µM and the IC50 (after dbcAMP stimulation (0.3 or 1 mM)) was 20 µM.
